Assay results: patent US20190275324A1, “METHOD FOR TREATING OR PREVENTING A SICKLE-CELL DISEASE AND SYMPTOMS THEREOF” (DIAVEIN, priority 2016, published 2019)

What was measured:
[1] = tested on: patients with a severe vaso-occlusive crisis associated with sickle cell disease; experiment: Clinical study of VEST in combination with NSAID for relief of pain in vaso-occlusive crisis (Example 6), 10-cm VAS for pain; type: in vivo, human; conditions: all groups also given Perfalgan and Tramadol
Excerpt: The objective of the clinical study was to assess the efficacy of VEST in combination with non-steroid anti-inflammatory drugs to manage pain in adult and paediatric patients experimenting a severe vaso-occlusive crisis associated with sickle cell disease.
27 patients suffering from a sickle-cell disease and experimenting a severe vaso-occlusive crisis, with a pain score of at least 6 in the visual analog scale for pain (VAS pain), were enrolled in the study. The enrolled patients comprised 16 adults (of 19 to 35 years) and 11 children (of 8 to 17 years). 8 patients were of HbSS genotype, 19 patients were of HbSC genotype. The enrolled patients comprised 18 male subjects and 9 female subjects.
After their admission at the hospital, 15 patients received pain killer (Perfalgan) and (Tramadol) drugs and the NSAID Diclofenac and were subjected to VEST treatment for 4 hours, with two electrodes under each calf and two electrodes under each arm of the patient.
2 patients received Pain killer (Perfalgan) and (Tramadol) drug and were subjected to VEST treatment for 4 hours, with two electrodes under each calf and two electrodes under each arm of the patient. These patients were not administered with any NSAID. […]
Pain change in each patient was assessed with a 10-cm visual analog scale (VAS) for pain (e.g. as shown in FIG. 4) every two hours, during 6 hours after the beginning of VEST.

[2] = tested on: patients with acute vaso-occlusive crisis; conditions: after 4 hours; patients treated with morphine, Weiner et al.; cited from earlier work

O=C(O)Cc1ccccc1Nc1c(Cl)cccc1Cl [NSAID alone, Diclofenac]
mean pain score in VAS ([1]; after 4 hours): 6 cm | mean pain score in VAS ([1]; after 6 hours): 6 cm

CN1CC[C@]23c4c5ccc(O)c4O[C@H]2[C@@H](O)C=C[C@H]3[C@H]1C5 [morphine]
mean pain score in VAS [2]: higher than 6 cm
